Test results: patent publication US20240269128A1, “COMPOUNDS FOR TREATING OR PREVENTING ALZHEIMER'S DISEASE” (THE UNITED STATES OF AMERICA, as represented by the …, priority 2021, published 2024)

What was measured:
STAT3 [1] = molecular target: T1, STAT3 (Homo sapiens, UniProt P40763); assay: Western blot of p-STAT3 in tau phosphorylation assay; assay type: cell-based
T1 construct: endogenous in cells; host or cells: HMC3 (ATCC CRL-3304), 1321N1 (Sigma-Aldrich), SK-N-BE(2)-M17 (ATCC CRL-2267)
Protocol: (§1) Western blot analyses: Samples for western blot analyses were prepared from 3 assays which provided evidence of HCQ-associated rescue (i.e., Ab1-42 clearance, tau phosphorylation, and LPS-induced neuroinflammation). Samples were prepared identically as described above in section: Effect of HCQ on AD-related phenotypes in cell culture, and scaled up to 24-well format to allow for adequate sample volume. After HCQ treatment, cells were washed once with PBS and harvested in 50 μl 50 mM HEPES+2% SDS lysis buffer. The extracts were then boiled at 95° C. for 5 mins. Analytic methods were identical to those described above in Example 4.
(§2) Statistical analyses: Statistical analysis was performed using STATA 16.1. Group differences were evaluated using two-sample t-tests (parametric) to calculate differences in p-STAT3 levels between HCQ treated and control samples. We additionally used the Wilcoxon rank-sum test (non-parametric) to confirm that results were robust to distributional assumptions. Significant differences were indicated as p<0.05.

STAT3 [2] = molecular target: T2, STAT3 (Mus musculus, UniProt P42227); assay: Western blot of p-STAT3 in BV-2 phenotypic assays (Aβ1-42 clearance, LPS); assay type: cell-based; conditions: 25 μM
T2 sequence (P42227 whole entry): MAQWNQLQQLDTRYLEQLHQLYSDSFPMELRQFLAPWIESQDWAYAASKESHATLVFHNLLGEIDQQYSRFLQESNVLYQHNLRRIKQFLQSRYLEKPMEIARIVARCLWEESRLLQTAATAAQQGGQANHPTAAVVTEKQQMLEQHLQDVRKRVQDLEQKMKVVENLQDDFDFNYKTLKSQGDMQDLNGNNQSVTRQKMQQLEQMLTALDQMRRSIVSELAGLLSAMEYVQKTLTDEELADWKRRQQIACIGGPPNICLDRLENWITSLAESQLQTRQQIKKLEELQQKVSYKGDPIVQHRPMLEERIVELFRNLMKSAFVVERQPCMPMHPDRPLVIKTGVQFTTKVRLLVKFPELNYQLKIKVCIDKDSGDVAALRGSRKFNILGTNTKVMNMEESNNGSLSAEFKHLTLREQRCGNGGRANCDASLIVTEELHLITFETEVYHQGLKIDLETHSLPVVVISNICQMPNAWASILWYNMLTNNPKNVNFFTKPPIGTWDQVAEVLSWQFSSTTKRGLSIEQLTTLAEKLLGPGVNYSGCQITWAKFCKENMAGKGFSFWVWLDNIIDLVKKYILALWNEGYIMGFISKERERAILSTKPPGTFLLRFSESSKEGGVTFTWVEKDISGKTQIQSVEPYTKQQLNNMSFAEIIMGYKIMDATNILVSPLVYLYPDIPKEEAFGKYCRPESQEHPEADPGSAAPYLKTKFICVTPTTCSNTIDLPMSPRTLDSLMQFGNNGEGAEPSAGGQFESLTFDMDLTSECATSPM
Protocol: as §1, §2

[3] = test system: murine microglial cell line BV-2; assay: LPS-induced neuroinflammation in BV-2 microglial cells (cytokines by MSD V-PLEX, MTT); assay type: cell-based, mouse
Protocol: Lipopolysaccharide (LPS)-Induced Neuroinflammation: The murine microglial cell line BV-2 was cultivated in DMEM medium supplemented with 10% FCS, 1% penicillin/streptomycin and 2 mM L-glutamine (culture medium). For LPS stimulation assay, 5000 BV-2 cells per well (uncoated 96 well plates) were plated out and the medium was changed to treatment medium (DMEM, 5% FCS, 2 mM L-glutamine). After changing cells to treatment medium, drug compounds were administered 1 hour before LPS stimulation (Sigma-Aldrich; L6529; 1 mg/ml stock in ddH2O, final concentration in well: 100 ng/ml (dilutions in medium)). Cells treated with vehicle, cells treated with LPS alone, as well as cells treated with LPS plus reference item (dexamethasone 10 μM, Sigma D4902) served as controls. After 24 h of stimulation, cell supernatants were collected for the cytokine measurement (V-PLEX Proinflammatory Panel 1 Mouse Kit, K15048D, Mesoscale) and cells were subjected to MTT assay.
MTT Assay: MTT solution was added to each well in a final concentration of 0.5 mg/mL. After 2 h, the MTT containing medium was aspirated. Cells were lysed in 3% SDS and the formazan crystals were dissolved in isopropanol/HCl. Optical density was measured with a Cytation 5 (Biotek) multimode reader at wavelength 570 nm. Values were calculated as percent of control values (vehicle control or lesion control).
After changing cells to treatment medium, HCQ (0.25 μM, 2.5 μM and 25 μM) was applied 1 hour before LPS stimulation (Sigma-Aldrich; L6529; 1 mg/ml stock in ddH2O, final concentration in well: 100 ng/ml (dilutions in medium)).

STAT3 [4] = molecular target: T2, STAT3; assay: Western blot of total and phosphorylated STAT3 in mouse embryonic cortical neurons; assay type: cell-based; design: hippocampal homogenate samples across four groups; from tissue; host or cells: acute hippocampal slices from WT and APP/PS1 (APPSwe/PS1dE9) mice; conditions: 50 μM, 48 hours
Protocol: For primary cultures of embryonic cortical neurons, timed-pregnant mice were obtained from The Jackson Laboratory. Cultures were prepared from embryonic day (E) 14.5 cerebral tissues as described (Zhao et al., Cell Death Differ 2019, 26:1600-1614). Pregnant mice were killed by fast cervical dislocation, embryos and embryo brains were removed, and the cerebral hemisphere was extracted in sterile Hank's balanced saline solution (HBSS). Brain tissues were incubated in 0.25% trypsin-EDTA for 30 min at 37° C.and then transferred to DMEM containing 10% fetal bovine serum (DMEM+). The tissues were transferred to neurobasal (NB) medium containing B27 supplements, 2 mM L-glutamine, antibiotics and antimycotics (Gibco), and 1 mM HEPES and dissociated by trituration using a fire-polished Pasteur pipet. The dissociated cells were seeded into polyethyleneimine-coated plastic culture dishes at a density of 60,000 cells/cm^2 and cultured in the same B27-containing NB medium. Experiments were started 5 days later.
HCQ treatment: Treatment with hydroxychloroquine Sulfate (Selleckchem, Catalog No.S4430) was performed at 50 μM concentration. […]
Statistical analysis: Digitized images were obtained, processed, and quantified with ImageLab version 6.1 (BioRad Laboratories).

T1 sequence (P40763 whole entry): as the sequence (P42227 whole entry) above, with D760E counted along it

`CCN(CCO)CCCC(C)Nc1ccnc2cc(Cl)ccc12` (stereo not drawn) [HCQ, hydroxychloroquine] was tested, and the “p-STAT3 (Tyr705)” value (STAT3 [1]; 25 μM and 2.5 μM, relative to VC) was “lowered”, the “p-STAT3 (Ser727)” value (STAT3 [1]; 25 μM, 2.5 μM and 0.25 μM) was “lowered” and the “p-STAT3 (Tyr705)” value (STAT3 [2]; Aβ1-42 clearance assay, relative to VC) was “lowered”. The “p-STAT3 (Tyr705)” value (STAT3 [2]; LPS-induced neuroinflammation assay, vs VC) was “significantly lower”, the IL-1b ([3]; 2.5 μM, 25 μM, LPS) was “dose dependent (2.5 μM<25 μM) reduction” and the IL-6 ([3]; 2.5 μM, 25 μM, LPS) was “dose dependent (2.5 μM<25 μM) reduction”. For the same molecule, the IL-10 ([3]; 2.5 μM, 25 μM, LPS) was “dose dependent (2.5 μM<25 μM) reduction”, the IL-12p70 ([3]; 2.5 μM, 25 μM, LPS) was “dose dependent (2.5 μM<25 μM) reduction” and the TNF-alpha secretion ([3]; 25 μM, LPS) was “reduction”. For the same molecule, the cell viability ([3]; HCQ in LPS assay) was “without any adverse effects on cell viability”, the “p-STAT3 (Tyr705 and Ser727)” value (STAT3 [4]) was “reduced” and the “total STAT3” value (STAT3 [4]) was “without alteration”.
